Measurements as given in patent US20250282720A1, “ALKYLSULFENYL THIOCARBONATES: PRECURSORS TO HYDROPERSULFIDES POTENTLY ATTENUATE OXIDATIVE STRESS” (The Johns Hopkins University, priority 2021, published 2025).

What was measured:
[1] = Kinetics of RSSH release (precursor hydrolysis) in the presence of MMTS, monitored by HPLC; type: physicochemical
Method: After confirming RSSH generation from 1a, the kinetics of RSSH release from alkylsulfenyl thiocarbonates in the presence of MMTS was analyzed by high-performance liquid chromatography (HPLC). Due to the lack of a chromophore in MMTS adduct 7, the decay of the RSSH precursor and formation of the corresponding phenol byproduct was monitored. First-order rate constants were obtained by plotting the precursor decay and phenol byproduct formation as a function of time. […] The observation of similar rate constants for both 1a decay and phenol (4a) formation indicates a rapid reaction of relased RSSH with MMTS, and that these observed rate constants indicate the RSSH release rate. Importantly, 92% of the byproduct phenol 4a is observed. In addition, the effect of pH on the kinetics of RSSH release also was examined.
The RSSH release kinetics for precursors containing a variety of para-substituted phenols were then compared. It was hoped to decrease the rate of RSSH release through the introduction of electron-donating groups. Indeed, a small decrease in the RSSH release rate from 1b, equipped with a 4-Me substituent (137±4 min) (Table 1) was observed.
MMTS (100 μL, 50 mM) was added in pH 7.4 phosphate buffer saline (4.85 mL) containing the DTPA (100 μM) as metal chelator. This solution was preincubated for 10 min at 37° C. and then precursor 1a-f or 8 (50 μL, 10 mM) were independently added into the mixture (total volume=5 mL). The resulting solution was incubated at 37° C. At different time points, an aliquot of 300 μL was taken and quenched with 300 μL 0.1% formic acid solution. These samples were stored at 0° C. until HPLC analysis was performed. The sample (20 μL) was injected into a high-performance liquid chromatography (HPLC) equipped with Phenomenex C-18 reverse phase column (250 mm×4.6 mm, 5 μm). HPLC Method: mobile phase A (H2O) and mobile phase B (ACN), flow rate: 1 mL/min, run time: 21 min, the gradient elution method: 10% to 70% B from 0 to 10 min, 70% to 90% B from 10 to 21 min. The elution was monitored by a UV detector at 240 and 275 nm. First-order rate constants were obtained by plotting the precursor decay and phenol by-product formation as a function of time.

[2] = tested on: H9c2 cardiac myoblasts; test: H9c2 cell protection from H2O2-mediated oxidative stress, CCK-8; type: cell-based, rat; details: then H2O2 200 μM
Method: The cytoprotective effects of 1a was then measured against oxidative stress.
H9c2 embryonic rat heart myoblasts were obtained from the American Type Culture Collection. Cells were grown in Dulbecco's minimal essential medium (DMEM), supplemented with fetal bovine serum (FBS) 10%, penicillin 100 U/mL and streptomycin 100 μg/mL. They were propagated in T75-flasks, split before reaching 70-80% confluence (usually every day or every second day), and used within 11 passages. Cells were passaged to tissue culture treated 96-well microtiter plates at the specified density in 180 μL volumes and incubated for 24 h.
Cells were seeded at a density of 5×10^3 cells/well. After 24 h, precursor 1a or by-product 4a was added at 20 μL volumes using DMSO:H2O (<0.01% DMSO as the vehicle). Cells were incubated for 2 h before media was removed and the cells gently washed with PBS (pH 7.4). Then, 180 μL of fresh media and 20 μL H2O2 diluted into H2O were added and cells were incubated for an additional 2 h. At the completion of H2O2 exposure, each well is carefully washed 3 times with PBS (pH 7.4) before adding 100 μL of media, without-FBS, containing 10% v/v CCK-8 (Dojindo) and incubated for 3 h prior to obtaining absorbance values at 450 nm. The relative % viability was calculated as 100 times the ratio of the Abs450 (pre-treated, H2O2-exposed) over Abs450 (vehicle-treated, non H2O2-exposed).

[3] = tested on: H9c2 cardiac myoblasts; test: H9c2 cell protection from H2O2-mediated oxidative stress, Sytox Green nucleic acid stain; type: cell-based, rat; details: Sytox viability assay, H2O2 200 μM
Method: Jones and Singer, 2001. […] Tominaga et al., 1999.
Cells were incubated for 2 h before media was removed and the cells gently washed with PBS (pH 7.4). Then, 180 μL of fresh media and 20 μL H2O2 diluted in H2O were added before cells were incubated for an additional 1 h.

[4] = tested on: FA fibroblasts; test: Protection against erastin-induced ferroptosis in FA fibroblasts; type: cell-based, human; details: 25 μM and 50 μM, 4 h pretreatment, erastin 24 h
Method: FIG. 10A, pretreatment of AST with varying concentrations in FA fibroblasts (GM04078, Coriell Institute) for 4 h followed by 4 h treatment with H2O2. Viability was measured using CCK8 assay. FIG. 10B, pretreatment of AST with varying concentrations in FA fibroblasts for 4 h followed by treatment with erastin for 24 h. Results are expressed as SEM with n≥3 for all concentrations. **P<0.005, for comparisons with the erastin group. Group comparisons are determined by a one-way analysis of variance (ANOVA) with Dunnet's correction post-hoc test using GraphPad Prism 8;
We next sought to determine whether AST would protect FA fibroblasts against erastin-induced cell death. Erastin is an inducer of ferroptosis, an iron-dependent form of cell death. It acts as an inhibitor of the cystine glutamate antiporter (system Xc), inhibiting the import of cystine, which leads to downstream depletion of glutathione (GSH) and ultimately to elevated ROS production.

[5] = tested on: aconitase; test: Aconitase activity in enriched-mitochondrial pellets of FA fibroblasts; type: cell-based, human; design: aconitase activity after erastin: dose or concentration left out as unconfirmed
Method: Aconitase activity was measured as a result of formation of NADH and normalized to citrate synthase activity. FIG. 12B, pretreatment of AST with varying concentrations in FA fibroblasts for 4 h followed by 24 h treatment with erastin ([…]). Assays were conducted on enriched-mitochondrial pellets. Results are the means±SEM of n≥3 for all concentrations. *P<0.05, **P<0.005, ***P<0.0005, ****P<0.0001 for comparisons with the […]. Group comparisons are determined by a one-way analysis of variance (ANOVA) with Dunnet's correction post-hoc test using GraphPad Prism 8;
FXN deficiency results in diminished activity of various mitochondrial proteins that contain Fe—S cluster cofactors. For example, aconitase activity is affected in FA fibroblasts. Rötig et al., 1997. Aconitase catalyzes the stereospecific isomerization of citrate to isocitrate in the tricarboxylic acid cycle and its activity is highly dependent on an intact [4Fe-4S]^2+ cluster. We examined the impact of RSSH in FA fibroblasts on aconitase activity, the increase of which is reflective of preserved or augmented Fe—S cluster biosynthesis. […] To corroborate further that AST can effectively preserve or enhance Fe—S cluster assembly under challenging biological conditions, we conducted analogous experiments replacing H2O2 with erastin.

[6] = tested on: ferritin heavy chain 1 (FTH1); test: FTH1 protein expression, immunoblot; type: cell-based, human; details: 25 and 50 μM for 4 h, erastin 24 h
Method: FIG. 14A, FIG. 14B, FIG. 14C, and FIG. 14D show: FIG. 14A and FIG. 14B pretreatment of AST (25 and 50 μM) for 4 h followed by 24 h treatment with erastin ([…]) immunoblots for indicated proteins of lysates derived from FA fibroblasts. FIG. 14C and FIG. 14D, relative abundance of TFR1 and FTH1 proteins normalized to β-actin loading control. Results are the means+SEM of n=3 for all concentrations. *P<0.05, **P<0.005, comparisons with the erastin group. Group comparisons are determined by a one-way analysis of variance (ANOVA) with Dunnet's correction post-hoc test using GraphPad Prism 8. Samples were run on the same gel for SDS-Page gel electrophoresis in nonconsecutive lanes;
To test this hypothesis, we studied the effect of RSSH on TFR1 and FTH1 expression levels. We anticipated that the impacts of RSSH would result in downregulation of TFR1 and upregulation of FTH1. […] Feng et al., 2020; Park and Chung, 2019.

[7] = pH 7.4 solution at 37° C.; cited from earlier work
[8] = 10 equiv MMTS, PBS pH 7.4, 100 mM

With COC(=O)C(NC(C)=O)C(C)(C)SSC(=O)Oc1ccccc1 (stereo not drawn) [Precursor 1a, Methyl 2-acetamido-3-methyl-3-((phenoxycarbonyl)disulfaneyl)butanoate] the “first-order rate constant k, disappearance of precursor” value [1, 8] was 0.00539 min⁻¹, the “first-order rate constant k, formation of phenol” value [1, 8] was 0.00533 min⁻¹ and the t1/2 of hydrolysis ([1]; pH 6.0) was 26.65 ± 0.8 h. For the same compound, the t1/2 of hydrolysis ([1]; pH 8.0) was 0.617 ± 0.05 h, the “cytoprotection against H2O2-induced toxicity” value ([2]; pre-treatment 4 h) was “dose-dependent decrease of H2O2-induced toxicity” and the “cytoprotection against H2O2-induced toxicity” value ([2]; pre-treatment with 5 μM for 8 h) was “shows protection”. For the same compound, the “cytoprotection against H2O2-mediated toxicity” value [3] was “consistently shows protective effects”, the “protection against erastin-induced ferroptosis” value [4] was “nearly complete protection” and the “aconitase activity after H2O2” value ([5]; 4 h pretreatment at 10, 25, 50 μM, 75 mM H2O2) was “rescues aconitase activity to levels found in control”. The “aconitase activity after erastin” value ([5]; pretreatment) was “attenuated this adverse effect”, the FTH1 protein level [6] was “two-fold increase” and the half-life [7] was 2.15 h.
